Test results reported in ChEMBL document CHEMBL1201862, “PubChem BioAssay data set” (2004).
Where a name gives a salt, the structure may show the parent alone. Active and inactive are the calls of the source.

Assays:
Hexokinase HKDC1 = target: T1, Hexokinase HKDC1 (Homo sapiens, UniProt Q2TB90); experiment: SAR analysis of small molecule inhibitors of hexokinase domain containing I (HKDC1). [Related pubchem assays (depositor defined):AID493160, AID493190]; type: functional
T1 sequence (Q2TB90 whole entry): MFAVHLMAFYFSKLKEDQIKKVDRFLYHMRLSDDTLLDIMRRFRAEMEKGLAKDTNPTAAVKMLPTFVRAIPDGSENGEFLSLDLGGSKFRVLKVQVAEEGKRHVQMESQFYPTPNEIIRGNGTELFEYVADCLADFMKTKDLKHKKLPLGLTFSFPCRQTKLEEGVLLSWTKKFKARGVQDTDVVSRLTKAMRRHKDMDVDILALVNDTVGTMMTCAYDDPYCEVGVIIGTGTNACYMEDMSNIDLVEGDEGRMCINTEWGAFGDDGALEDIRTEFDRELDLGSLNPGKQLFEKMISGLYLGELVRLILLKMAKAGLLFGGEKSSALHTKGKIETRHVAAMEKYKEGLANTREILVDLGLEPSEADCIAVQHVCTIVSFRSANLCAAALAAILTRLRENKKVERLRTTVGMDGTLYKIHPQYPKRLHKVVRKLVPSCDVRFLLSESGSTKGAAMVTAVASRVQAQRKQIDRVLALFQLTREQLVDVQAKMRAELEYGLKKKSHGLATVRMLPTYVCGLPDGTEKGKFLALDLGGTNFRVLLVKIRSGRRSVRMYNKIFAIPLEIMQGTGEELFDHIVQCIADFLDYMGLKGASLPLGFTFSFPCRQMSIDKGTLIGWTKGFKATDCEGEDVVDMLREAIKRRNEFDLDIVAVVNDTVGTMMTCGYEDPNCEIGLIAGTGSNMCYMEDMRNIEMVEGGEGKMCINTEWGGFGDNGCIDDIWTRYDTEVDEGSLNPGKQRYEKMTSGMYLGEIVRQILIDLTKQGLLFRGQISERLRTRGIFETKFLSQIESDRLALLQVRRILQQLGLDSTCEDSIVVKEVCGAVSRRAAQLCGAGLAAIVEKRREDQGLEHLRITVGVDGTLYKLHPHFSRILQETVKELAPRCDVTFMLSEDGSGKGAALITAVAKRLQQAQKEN

Hexokinase-1 = target: T2, Hexokinase-1 (Homo sapiens, UniProt P19367); experiment: SAR analysis of small molecule inhibitors of hexokinase domain containing I (HKDC1) in the hexokinase 1 selectivity assay. [Related pubchem assays (depositor defined):AID493160, AID493190]; type: functional
T2 sequence (P19367 whole entry): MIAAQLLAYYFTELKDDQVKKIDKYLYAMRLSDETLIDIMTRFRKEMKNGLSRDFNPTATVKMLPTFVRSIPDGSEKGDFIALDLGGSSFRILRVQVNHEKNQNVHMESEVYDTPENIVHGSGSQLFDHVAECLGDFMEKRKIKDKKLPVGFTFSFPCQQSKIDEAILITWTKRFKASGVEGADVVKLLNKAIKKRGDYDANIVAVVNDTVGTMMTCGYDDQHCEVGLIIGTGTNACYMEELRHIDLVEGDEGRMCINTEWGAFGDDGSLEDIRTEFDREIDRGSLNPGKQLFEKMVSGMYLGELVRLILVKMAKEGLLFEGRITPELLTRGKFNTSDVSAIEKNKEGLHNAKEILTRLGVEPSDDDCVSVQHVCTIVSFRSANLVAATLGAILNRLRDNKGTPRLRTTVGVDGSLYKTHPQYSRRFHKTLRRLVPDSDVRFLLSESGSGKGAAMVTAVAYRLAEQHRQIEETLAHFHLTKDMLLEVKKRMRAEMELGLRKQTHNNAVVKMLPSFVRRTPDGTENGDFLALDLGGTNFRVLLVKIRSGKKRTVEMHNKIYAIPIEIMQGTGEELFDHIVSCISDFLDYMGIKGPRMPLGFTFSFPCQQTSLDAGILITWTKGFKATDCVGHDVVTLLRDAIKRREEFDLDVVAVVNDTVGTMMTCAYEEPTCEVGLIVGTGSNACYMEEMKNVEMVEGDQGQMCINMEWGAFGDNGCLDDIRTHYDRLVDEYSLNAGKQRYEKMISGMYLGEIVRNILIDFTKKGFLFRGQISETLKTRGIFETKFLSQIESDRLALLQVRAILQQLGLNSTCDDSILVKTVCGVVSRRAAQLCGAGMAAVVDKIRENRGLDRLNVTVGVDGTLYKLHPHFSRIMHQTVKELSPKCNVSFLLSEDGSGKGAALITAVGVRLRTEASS

[1] = target: 5-hydroxytryptamine receptor 2A (Mus musculus, UniProt P35363); type: functional, cell-based;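 further: CHO-K1 cells with tagged receptor and beta-arrestin; agonist potency measured as compound-induced activation of the receptor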
Sequence of 5-hydroxytryptamine receptor 2A (P35363 whole entry): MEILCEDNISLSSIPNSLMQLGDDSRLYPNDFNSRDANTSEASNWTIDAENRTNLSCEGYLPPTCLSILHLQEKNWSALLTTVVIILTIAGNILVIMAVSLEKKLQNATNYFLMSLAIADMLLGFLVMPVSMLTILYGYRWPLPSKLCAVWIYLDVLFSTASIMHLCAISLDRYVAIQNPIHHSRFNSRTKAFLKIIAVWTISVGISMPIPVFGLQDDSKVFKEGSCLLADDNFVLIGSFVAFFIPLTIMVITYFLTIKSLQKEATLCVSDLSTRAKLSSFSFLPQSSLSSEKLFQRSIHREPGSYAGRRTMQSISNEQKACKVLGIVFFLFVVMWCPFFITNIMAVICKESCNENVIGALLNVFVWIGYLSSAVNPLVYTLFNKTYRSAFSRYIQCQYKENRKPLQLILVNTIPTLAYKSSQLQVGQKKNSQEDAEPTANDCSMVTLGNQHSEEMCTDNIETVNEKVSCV

Escherichia coli [2] = experiment: microbe, parasite or virus in culture
Mu-type opioid receptor = Mu-type opioid receptor (Homo sapiens, UniProt P35372); type: functional, cell-based;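 further: U2OS cells with beta-arrestin recruitment to OPRM1 by beta-gal complementation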
Sequence of Mu-type opioid receptor (P35372 whole entry): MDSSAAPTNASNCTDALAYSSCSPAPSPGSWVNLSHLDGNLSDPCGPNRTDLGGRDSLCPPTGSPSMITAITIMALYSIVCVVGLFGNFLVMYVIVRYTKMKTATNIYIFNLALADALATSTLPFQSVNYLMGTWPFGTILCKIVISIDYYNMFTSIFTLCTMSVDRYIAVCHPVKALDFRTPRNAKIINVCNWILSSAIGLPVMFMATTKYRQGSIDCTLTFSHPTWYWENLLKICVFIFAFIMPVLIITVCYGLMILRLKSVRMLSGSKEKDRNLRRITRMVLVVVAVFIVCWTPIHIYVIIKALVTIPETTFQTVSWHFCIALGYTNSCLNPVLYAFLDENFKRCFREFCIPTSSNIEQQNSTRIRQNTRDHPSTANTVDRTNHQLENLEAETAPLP

Escherichia coli [3] = experiment: microbe, parasite or virus in culture; remark: listed apart in the source
Nonstructural protein 1 = Nonstructural protein 1 (Influenza A virus, UniProt Q194T2); type: functional, Influenza A virus (A/California/07/2009(H1N1))
Sequence of Nonstructural protein 1 (Q194T2 whole entry): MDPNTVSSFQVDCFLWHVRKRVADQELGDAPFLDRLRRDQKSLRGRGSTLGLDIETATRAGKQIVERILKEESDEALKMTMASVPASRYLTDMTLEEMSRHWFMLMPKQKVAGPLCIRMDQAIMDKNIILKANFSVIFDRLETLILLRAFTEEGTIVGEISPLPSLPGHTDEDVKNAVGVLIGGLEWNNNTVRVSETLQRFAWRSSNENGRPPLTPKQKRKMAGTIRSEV

[4] = microbe, parasite or virus in culture; type: functional; settings: Mycobacterium tuberculosis
INS1 = experiment: INS-1E survival protection against cytokine death – cell-based, luminescence, retest, dose response (AID 449756); type: functional; settings: Rattus norvegicus;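 further: cell death triggered by IL-1 beta plus TNF-alpha plus IFN-gamma mixture; protective hits raise ATP signal compared with cytokine alone wells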
Streptokinase A = target: T3, Streptokinase A (Streptococcus pyogenes serotype M1, UniProt P10520); experiment: viability-normalized secreted streptokinase activity reduction – plasminogen activation absorbance, OD405, dose response (AID 1914); type: functional, Streptococcus pyogenes M1 GAS;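 further: secreted streptokinase activity via plasminogen activation per viability signal from cell pellet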
T3 sequence (P10520 whole entry): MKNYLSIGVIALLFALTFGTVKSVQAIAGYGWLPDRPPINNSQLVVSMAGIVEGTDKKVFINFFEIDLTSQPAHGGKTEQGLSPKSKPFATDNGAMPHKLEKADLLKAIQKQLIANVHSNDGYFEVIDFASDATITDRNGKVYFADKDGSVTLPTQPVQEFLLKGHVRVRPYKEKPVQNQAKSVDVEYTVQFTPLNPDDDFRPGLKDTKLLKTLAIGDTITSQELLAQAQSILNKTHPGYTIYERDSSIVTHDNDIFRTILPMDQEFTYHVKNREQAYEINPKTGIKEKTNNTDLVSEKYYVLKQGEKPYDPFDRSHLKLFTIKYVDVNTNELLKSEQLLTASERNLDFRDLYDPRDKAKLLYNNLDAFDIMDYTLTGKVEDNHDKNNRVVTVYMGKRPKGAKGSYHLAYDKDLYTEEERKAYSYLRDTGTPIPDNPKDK

[5] = target: T4, Kappa-type opioid receptor (Homo sapiens, UniProt P41145); type: functional
T4 sequence (P41145 whole entry): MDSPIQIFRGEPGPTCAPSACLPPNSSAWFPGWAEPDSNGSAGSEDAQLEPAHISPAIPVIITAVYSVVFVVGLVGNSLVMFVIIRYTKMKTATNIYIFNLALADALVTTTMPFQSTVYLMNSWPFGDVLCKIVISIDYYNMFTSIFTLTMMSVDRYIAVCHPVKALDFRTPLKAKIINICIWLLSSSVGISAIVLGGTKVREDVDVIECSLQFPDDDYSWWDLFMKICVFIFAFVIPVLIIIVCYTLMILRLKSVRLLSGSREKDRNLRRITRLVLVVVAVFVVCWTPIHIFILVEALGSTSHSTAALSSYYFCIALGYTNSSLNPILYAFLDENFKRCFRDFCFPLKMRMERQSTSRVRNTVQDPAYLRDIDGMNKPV

[6] = test system: Streptococcus sp. 'group A'; experiment: Streptococcus pyogenes SK(-)GAS viability under kanamycin – luminescence, BacTiterGlo, confirmation, counter-screen for streptokinase expression inhibitor project, dose response (AID 1900); type: functional, organism-based; settings: Streptococcus sp. 'group A'
[7] = fluconazole-exposed Candida albicans growth modulators – fluorescence, retest, confirmation (AID 2467); type: functional, cell-based
Beta-galactosidase = Beta-galactosidase (Escherichia coli, UniProt Q8VNN2); type: functional
Sequence of Beta-galactosidase (Q8VNN2 whole entry): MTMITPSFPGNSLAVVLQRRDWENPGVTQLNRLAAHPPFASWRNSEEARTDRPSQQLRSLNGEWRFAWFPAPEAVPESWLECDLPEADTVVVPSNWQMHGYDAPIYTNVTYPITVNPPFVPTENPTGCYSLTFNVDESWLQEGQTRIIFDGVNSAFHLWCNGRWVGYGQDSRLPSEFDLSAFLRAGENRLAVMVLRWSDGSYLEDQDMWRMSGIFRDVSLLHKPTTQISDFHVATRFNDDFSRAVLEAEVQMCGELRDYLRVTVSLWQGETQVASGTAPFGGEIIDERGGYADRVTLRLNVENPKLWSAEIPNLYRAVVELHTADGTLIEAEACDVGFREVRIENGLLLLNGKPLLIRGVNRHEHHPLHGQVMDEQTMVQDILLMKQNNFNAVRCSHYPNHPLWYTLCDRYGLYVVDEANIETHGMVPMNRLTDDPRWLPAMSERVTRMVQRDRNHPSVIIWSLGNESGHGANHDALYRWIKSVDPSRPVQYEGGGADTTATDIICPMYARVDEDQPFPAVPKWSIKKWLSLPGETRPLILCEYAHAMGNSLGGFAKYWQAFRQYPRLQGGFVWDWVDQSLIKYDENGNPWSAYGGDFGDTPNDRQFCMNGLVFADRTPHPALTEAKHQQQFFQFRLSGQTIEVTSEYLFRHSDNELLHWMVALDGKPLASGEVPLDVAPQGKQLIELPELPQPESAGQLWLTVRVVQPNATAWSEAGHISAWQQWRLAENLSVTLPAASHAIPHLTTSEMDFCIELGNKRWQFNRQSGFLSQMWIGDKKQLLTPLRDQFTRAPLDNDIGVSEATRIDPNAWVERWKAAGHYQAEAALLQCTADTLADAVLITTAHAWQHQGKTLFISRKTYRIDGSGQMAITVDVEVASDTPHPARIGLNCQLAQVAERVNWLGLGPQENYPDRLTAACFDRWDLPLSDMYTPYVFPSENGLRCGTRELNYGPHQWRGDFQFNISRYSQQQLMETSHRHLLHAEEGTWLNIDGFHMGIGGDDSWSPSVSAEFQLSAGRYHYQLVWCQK

Paired box protein Pax-8 = Paired box protein Pax-8 (Homo sapiens, UniProt Q06710); experiment: PAX8 transcriptional activity inhibition in RMG-I – RMG-I cells, luciferase, cherry-pick, dose response (AID 687027); type: functional, cell-based;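 further: luciferase reporter driven by Pax8 target thyroperoxidase promoter measured by SteadyGlo luminescence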
Sequence of Paired box protein Pax-8 (Q06710 whole entry): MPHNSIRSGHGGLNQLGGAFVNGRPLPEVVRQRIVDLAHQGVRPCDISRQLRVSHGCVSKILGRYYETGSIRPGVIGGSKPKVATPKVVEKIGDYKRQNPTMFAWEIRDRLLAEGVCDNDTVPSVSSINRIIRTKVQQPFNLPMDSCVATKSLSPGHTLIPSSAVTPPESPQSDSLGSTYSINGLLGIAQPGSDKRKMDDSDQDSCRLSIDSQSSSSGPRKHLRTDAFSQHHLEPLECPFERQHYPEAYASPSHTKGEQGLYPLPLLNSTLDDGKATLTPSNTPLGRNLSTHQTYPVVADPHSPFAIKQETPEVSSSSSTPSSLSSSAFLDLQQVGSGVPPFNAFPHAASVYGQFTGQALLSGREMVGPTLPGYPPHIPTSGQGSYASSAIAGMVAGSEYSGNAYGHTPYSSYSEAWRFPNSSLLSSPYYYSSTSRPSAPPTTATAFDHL

[8] = target: ATP-dependent molecular chaperone HSP82 (Candida albicans (strain WO-1) (Yeast), UniProt C4YTQ8); experiment: steroid-induced GRE reporter decrease in yeast – S. cerevisiae, luminescence, Hsp90 inhibitor project, dose response (AID 2400); type: functional, cell-based;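 further: beta-galactosidase luminescence from glucocorticoid response element reporter as proxy for Hsp90 function; inhibitor potency where signal loss means Hsp90 inhibition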
Sequence of ATP-dependent molecular chaperone HSP82 (C4YTQ8 whole entry): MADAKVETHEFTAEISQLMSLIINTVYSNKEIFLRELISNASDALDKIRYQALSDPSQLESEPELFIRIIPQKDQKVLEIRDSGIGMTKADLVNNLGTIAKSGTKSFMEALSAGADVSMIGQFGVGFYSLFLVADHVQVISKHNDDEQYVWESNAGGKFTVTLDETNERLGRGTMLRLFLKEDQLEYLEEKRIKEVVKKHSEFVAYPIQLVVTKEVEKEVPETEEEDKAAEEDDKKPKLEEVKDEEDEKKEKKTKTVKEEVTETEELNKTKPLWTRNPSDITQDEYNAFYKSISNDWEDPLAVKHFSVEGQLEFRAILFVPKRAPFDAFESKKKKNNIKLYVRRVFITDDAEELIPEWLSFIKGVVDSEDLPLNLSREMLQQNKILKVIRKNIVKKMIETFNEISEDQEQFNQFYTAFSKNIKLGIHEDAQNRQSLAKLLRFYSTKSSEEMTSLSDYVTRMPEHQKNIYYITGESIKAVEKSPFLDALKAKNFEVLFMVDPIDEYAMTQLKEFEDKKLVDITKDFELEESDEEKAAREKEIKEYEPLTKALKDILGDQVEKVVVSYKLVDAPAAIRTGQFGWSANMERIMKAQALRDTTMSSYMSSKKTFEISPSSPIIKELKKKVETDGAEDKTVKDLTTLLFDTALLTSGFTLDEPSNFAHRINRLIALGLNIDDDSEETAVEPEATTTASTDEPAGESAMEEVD

[9] = NIH-3T3 fibroblast cytotoxicity, dose response, cytotoxicity control, cell-based, fluorescence, Alamar Blue, secondary assay (AID 2327); type: functional;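 further: NIH-3T3 mouse fibroblasts cultured with fluconazole at 8 µg/mL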
[10] = target: T4, Kappa-type opioid receptor; type: functional; remark: listed apart in the source
HEK293 = experiment: EBV LMP1 TES2 canonical NF-kB signalling blockers – cell-based, HEK293, luciferase, cherry-pick, dose response (AID 588343); type: functional; settings: Homo sapiens
[11] = target: Serine/threonine-protein phosphatase (Candida dubliniensis (strain CD36 / CBS 7987 / NCPF 3949 / NRRLY-17841) (Yeast), UniProt B9W6M3); experiment: blockers of CaCl2-induced CDRE-lacZ signaling – S. cerevisiae, luminescence, secondary, dose response (AID 2388); type: functional, cell-based;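 further: yeast reporter cells carrying a calcineurin-responsive lacZ construct stimulated with calcium chloride; luminescent beta-galactosidase reporter signal in whole cells rather than isolated phosphatase activity; potency for inhibition where a drop in reporter signal means calcineurin blockade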
Sequence of Serine/threonine-protein phosphatase (B9W6M3 whole entry): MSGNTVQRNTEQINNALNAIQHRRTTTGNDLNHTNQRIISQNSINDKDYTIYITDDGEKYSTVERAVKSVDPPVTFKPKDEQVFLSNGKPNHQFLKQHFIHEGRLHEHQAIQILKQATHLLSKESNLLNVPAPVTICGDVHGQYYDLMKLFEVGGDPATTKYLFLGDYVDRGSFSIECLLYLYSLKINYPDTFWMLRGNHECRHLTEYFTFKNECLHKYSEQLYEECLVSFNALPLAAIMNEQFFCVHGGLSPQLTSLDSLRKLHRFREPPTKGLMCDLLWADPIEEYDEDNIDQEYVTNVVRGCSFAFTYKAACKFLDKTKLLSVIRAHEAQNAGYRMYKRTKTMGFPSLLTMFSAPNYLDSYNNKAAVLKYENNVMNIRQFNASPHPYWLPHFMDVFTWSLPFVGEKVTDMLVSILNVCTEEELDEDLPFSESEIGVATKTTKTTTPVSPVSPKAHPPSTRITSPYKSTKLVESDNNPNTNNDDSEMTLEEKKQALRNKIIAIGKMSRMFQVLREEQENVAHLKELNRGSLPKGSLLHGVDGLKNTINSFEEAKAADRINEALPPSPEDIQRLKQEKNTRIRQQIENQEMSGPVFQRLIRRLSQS

cells [12] = type: functional, cell-based
cells [13] = type: functional, cell-based; remark: listed apart in the source
[14] = HEK-293T viability loss after treatment – luminescence, T-cell screen hits, cytotoxicity control for TCR NF-kB inhibitor project, dose response (AID 489026); type: functional, cell-based;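 further: cells exposed to compound about 14 hours before the viability readout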
Streptococcus = experiment: GAS UMAA2166 growth inhibition – luminescence, BacTiterGlo, counter-screen for streptokinase expression inhibitor project, dose response (AID 1915); type: functional, organism-based; settings: Streptococcus;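 further: potency for reduction of bacterial viability or growth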
[15] = target: Dual specificity tyrosine-phosphorylation-regulated kinase 1A (Rattus norvegicus, UniProt Q63470); type: biochemical, Homo sapiens
[16] = target: Dual specificity protein kinase CLK1 (Homo sapiens, UniProt P49759); experiment: inhibition of human CLK1 activity – biochemical, cherry-picked samples, selectivity assay for Dyrk1A inhibitor project, dose response (AID 588811)
Sequence of Dual specificity protein kinase CLK1 (P49759 whole entry): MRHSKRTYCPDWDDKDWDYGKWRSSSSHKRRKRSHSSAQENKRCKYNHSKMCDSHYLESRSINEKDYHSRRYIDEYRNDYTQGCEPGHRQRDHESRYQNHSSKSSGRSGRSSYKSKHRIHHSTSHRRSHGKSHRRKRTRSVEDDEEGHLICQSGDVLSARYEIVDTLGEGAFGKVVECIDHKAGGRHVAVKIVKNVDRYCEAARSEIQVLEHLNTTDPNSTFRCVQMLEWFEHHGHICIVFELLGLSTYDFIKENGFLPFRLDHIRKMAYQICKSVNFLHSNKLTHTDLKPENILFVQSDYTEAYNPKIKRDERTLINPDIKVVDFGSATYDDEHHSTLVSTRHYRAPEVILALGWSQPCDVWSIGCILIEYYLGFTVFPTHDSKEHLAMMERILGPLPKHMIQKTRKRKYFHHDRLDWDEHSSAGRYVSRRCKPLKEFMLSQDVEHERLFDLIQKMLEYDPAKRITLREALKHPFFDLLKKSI

[17] = target: T5, Endoribonuclease toxin MazF (Escherichia coli K-12, UniProt P0AE70); experiment: activation of MazEF endoribonuclease cleavage – biochemical, fluorescence, single-stranded RNA substrate, uHTS hits, dose response (AID 588481); type: functional
T5 sequence (P0AE70 whole entry): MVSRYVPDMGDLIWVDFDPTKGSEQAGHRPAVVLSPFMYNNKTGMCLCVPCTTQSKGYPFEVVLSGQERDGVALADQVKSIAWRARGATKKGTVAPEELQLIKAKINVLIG

[18] = target: T6, Sentrin-specific protease 1 (Homo sapiens, UniProt Q9P0U3); experiment: SENP1 catalytic domain blockers, concentration series – biochemical, kinetic FRET, dose response (AID 651697); type: functional; settings: read-out: IC50_Mean
T6 sequence (Q9P0U3 whole entry): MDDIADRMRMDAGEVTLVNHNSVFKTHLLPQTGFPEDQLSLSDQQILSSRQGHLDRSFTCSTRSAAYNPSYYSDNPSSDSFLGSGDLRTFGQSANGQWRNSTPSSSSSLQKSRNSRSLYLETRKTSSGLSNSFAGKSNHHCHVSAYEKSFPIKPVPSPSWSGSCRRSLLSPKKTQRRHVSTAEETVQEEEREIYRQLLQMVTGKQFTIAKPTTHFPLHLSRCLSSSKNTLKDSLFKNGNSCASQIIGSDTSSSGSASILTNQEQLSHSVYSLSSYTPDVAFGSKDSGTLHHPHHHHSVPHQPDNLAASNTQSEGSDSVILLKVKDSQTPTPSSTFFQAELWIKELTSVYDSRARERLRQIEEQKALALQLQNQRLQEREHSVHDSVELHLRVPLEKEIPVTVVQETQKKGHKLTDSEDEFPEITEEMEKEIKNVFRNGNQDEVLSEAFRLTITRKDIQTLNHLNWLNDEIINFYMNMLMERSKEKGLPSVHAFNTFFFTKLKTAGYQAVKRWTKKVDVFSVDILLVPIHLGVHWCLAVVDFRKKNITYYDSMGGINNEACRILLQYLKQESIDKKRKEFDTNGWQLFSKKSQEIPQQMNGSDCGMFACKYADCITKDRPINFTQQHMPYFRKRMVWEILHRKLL

[19] = target: T5, Endoribonuclease toxin MazF; experiment: substrate-only fluorescence increase artefacts – biochemical, single-stranded RNase substrate, counter-screen for MazEF activator project, dose response (AID 588502); type: functional
[20] = target: T6, Sentrin-specific protease 1; experiment: Dose response confirmation of small molecule inhibitors of the catalytic domain of the SUMO protease, SENP1 in a FRET assay.; type: functional; settings: read-out: IC50_Mean

Compound: O=C(Nc1cccc(C(F)(F)F)c1)c1cccc(NC(=O)c2cccc3ccccc23)c1
- IC50 (Hexokinase HKDC1): > 80 µM (inactive)
- IC50 (Hexokinase-1): > 80 µM (inactive)

Compound: O=C(Nc1cccc(C(F)(F)F)c1)c1cccc(NC(=O)c2ccc3[nH]nnc3c2)c1
- IC50 (Hexokinase HKDC1): > 80 µM (inactive)
- IC50 (Hexokinase-1): > 80 µM (inactive)

Compound: CN(C)[C@@H]1C(O)=C(C(N)=O)C(=O)[C@@]2(O)C(O)=C3C(=O)c4c(O)ccc(Cl)c4[C@@H](O)[C@H]3C[C@@H]12 [DEMECLOCYCLINE HYDROCHLORIDE]
- EC50 [1]: 13.7 µM (inactive)
- AC50 (Escherichia coli [2]): 0.866 µM (active)
- EC50 (Mu-type opioid receptor): 92.5 µM (inactive)
- AC50 (Escherichia coli [3]): 36 µM (active)

Compound: C=CCNC(=S)N/N=C(\C)c1ccccn1
- IC50 (Nonstructural protein 1): 2.5 µM (active)
- CC50 [4]: < 0.08 µM (active)
- AC50 (INS1): < 0.195 µM (active)
- EC50 (Streptokinase A): > 150 µM (not active)
- IC50 [5]: > 32 µM
- EC50 [6]: 2 µM (active)
- EC50 [7]: 0.146 µM (active)
- EC50 (Beta-galactosidase): > 31.5 µM (inactive)
- AC50 (Paired box protein Pax-8): < 0.26 µM (active)
- EC50 [8]: > 150 µM (inactive)
- EC50 [9]: 40.7 µM (inconclusive)
- IC50 [10]: 3.27 µM (active)
- AC50 (HEK293): 0.493 µM (active)
- EC50 [11]: > 180 µM (inactive)
- EC50 (cells [12]): > 350 µM (not active)
- EC50 (cells [13]): 9.83 µM (active)
- IC50 [14]: > 80 µM (inactive)
- EC50 (Streptococcus): > 150 µM (not active)

Compound: Cc1cc(C(=O)Nc2sc3c(c2C#N)CCCC3)no1
- EC50 [7]: 2.21 µM (active)
- EC50 [8]: 24.9 µM (active)
- EC50 [9]: > 160 µM (inactive)
- EC50 [11]: > 180 µM (inactive)

Compound: COc1ccc(-c2cc(NCCc3ccncc3)n3ncnc3n2)cc1
- AC50 [15]: > 120 µM (inactive)
- AC50 [16]: 18.6 µM (active)

Compound: Cc1ccc2nc3sc(C(=O)NCc4ccco4)c(N)c3cc2c1
- EC50 [17]: > 99 µM (inactive)
- IC50 [18]: 4.66 µM (active)
- EC50 [19]: 65.2 µM (inactive)
- IC50 [20]: 7.17 µM (active)

Compound: Cc1cc(C)n(-c2nc3ccccc3nc2Nc2ccc3[nH]c(O)nc3c2)n1
- EC50 [17]: > 99 µM (inactive)
- EC50 [19]: > 99 µM (inactive)
